Our source for the AC50 values is PubChem BioAssay AID540268 (Broad Institute, 2011).

The structures appear in SMILES notation.

This assay can be described thus: growth inhibition of yeast carrying parasite Hsp90, dose response, anti-malarial Hsp90 inhibitor project, ATP luminescence, 48 h, cherry-picked samples (AID 540268). Conditions: yeast expressing the parasite Hsp90, ATP luminescence.
On to `O=C1C=CC2(O[C@H](c3ccccc3)[C@@H](c3ccccc3)O2)[C@H](Sc2ccccc2O)C1`, for which the AC50 (as a rule, the concentration at which the activity in the assay is half-maximal) was 3.46 µM.
The value for `O=C(CCSc1ccc(Br)cc1)c1ccc(O)cc1` was 3.64 µM.
On to `COc1cccc(/C=N/Nc2ncc(C(F)(F)F)cc2Cl)c1O`, for which the AC50 is 4.33 µM.
Turning to `C=CCn1c(O)c(C2=c3ccccc3=NC2=O)c2ccccc21`, the AC50 is 0.844 µM.
The value for `Cc1cc(C)cc(N=Cc2ccc([N+](=O)[O-])s2)c1` was 3.94 µM.
The value for `CCOc1ccc2nc(NC(=O)c3ccoc3C)sc2c1` was 6.99 µM; that for `O=C1S/C(=C\c2ccc(N3CCOCC3)o2)C(=O)N1Cc1c(F)cccc1Cl` was 11.1 µM; that for `Clc1ccc(CCC(Cn2ccnc2)Sc2c(Cl)cccc2Cl)cc1` (stereo not given) was under 0.195 µM.
For `Cc1ccc(N=Nc2ccc(O)cc2)c(Br)c1`, the AC50 was 8.33 µM.
Then `COc1cccc2c1C(=O)c1c(O)c3c(c(O)c1C2=O)CC(O)(C(C)=O)CC3OC1CC(N(C)C)C(O)C(C)O1` (stereo not given), with 1.58 µM; and `O=C1C=CC(=O)N1c1ccc(Nc2ccccc2)cc1`, with under 0.195 µM; and `CCCCCCCCCCOC(=O)Cn1c(COc2ccc(OC)cc2)[n+](C)c2ccccc21`, with 24.4 µM.
The value for `Cc1cc(N=Nc2ccc3ccccc3c2)ccc1O` was 2.93 µM; that for `CCCCCCC(=O)N(O)C1CC(=O)N(c2ccc(Br)cc2)C1=O` (stereo not given) was 2.22 µM; that for `CN1CCN(C(=O)c2cc(COc3c(F)cccc3F)on2)CC1c1ccccc1` (stereo not given) was 0.43 µM.
The value for `CCCCCCCCNC(=O)/C(C#N)=C/c1ccccc1[N+](=O)[O-]` was 4.69 µM; that for `O=Nc1c(O)c2ccccc2c2ccccc12` was 1.57 µM; that for `COc1ccc([N+](=O)[O-])c(S(=O)(=O)c2ccc(Cl)cc2)n1` was 1.27 µM.
Regarding `Cc1cc([N+](=O)[O-])c2ccccc2[n+]1[O-]`, the half-maximal activity concentration (AC50) was under 0.195 µM.
The value for `Cc1ccc2[nH]c(C)c(/C=N/Nc3nc4ccccc4s3)c2c1` was 2.63 µM; that for `CCCCCCCCCCCCCCCC[n+]1ccc(/C=N/O)cc1` was under 0.195 µM.
Then `CNc1ccc2oc(C[C@H]3O[C@@]4(CC[C@H]3C)O[C@H]([C@H](C)C(=O)c3ccc[nH]3)[C@H](C)C[C@H]4C)nc2c1C(=O)O`, with 0.813 µM.
For `Oc1ccc2ccccc2c1N=Nc1nccs1`, the AC50 was 0.63 µM.
Consider `COc1cccc2c1C(=O)c1c(O)c3c(c(O)c1C2=O)CC(O)(C(=O)CO)CC3OC1CC(N(C)C)C(O)C(C)O1` (stereo not given), for which the AC50 was 1.09 µM.
As for `Cc1csc(CNc2ncnc3ccc(-c4cccc(Cl)c4)cc23)c1`, the AC50 was 8.17 µM.
Then `O=[N+]([O-])c1cccc(SSc2cccc([N+](=O)[O-])c2)c1`, with 4.62 µM.
Turning to `CCN1CCCC1CN(Cc1cc2ccc(C)cc2[nH]c1=O)C(=S)Nc1ccc(F)cc1` (stereo not given), the AC50 is 3.2 µM.
The value for `COc1ccc2c(c1)[C@H]1[C@H](CO2)[C@H](c2ccccc2)[C@]2(C)C(=O)Nc3ccc(Cl)cc3C(=O)N12` was 1.8 µM.
Take `Cc1ccc(OCc2n[nH]c(=S)n2C2CCCCC2)cc1`: the half-maximal activity concentration (AC50) is 23.6 µM.
The value for `N/C(Cc1ccc(Cl)cc1Cl)=N\OC(=O)c1cccs1` was 6.39 µM; that for `COc1ccc(NC(=O)c2cc([N+](=O)[O-])ccc2O)cc1` was 5.24 µM.
The value for `COc1ccccc1C(=O)NNC(=S)NC(=O)c1cccs1` was 6.92 µM.
`Oc1ccc(N=Nc2c(O)ccc3ccccc23)cc1`: the AC50 was 7.02 µM.
The value for `O=[N+]([O-])c1cc(/C=N/O)ccc1Oc1ccccc1Cl` was 2.86 µM; that for `CCCCCCCCCCCCCCCC[N+](C)(C)Cc1ccc(F)cc1` was 0.213 µM; that for `COc1ccc(S(=O)(=O)NC2CC3CCC2C3)cc1Br` (stereo not given) was 3.52 µM.
Then `O=C1CC(c2ccccc2)CC(O)=C1C=Nc1cccc(Cl)c1` (stereo not given), with 3.26 µM.
Then `CC(=NNc1nc2ccccc2o1)c1ncccn1`, with 1.33 µM.
Take `Oc1ccc(N=Nc2ccc3ccccc3c2)cc1`: the AC50 is 4.26 µM.
`COc1ccc(C(=O)NC(=S)NNC(=O)c2cnccn2)cc1`: the AC50 is 2.98 µM.
